From US10351548B2, “2-oxo-1,2-dihydropyridine-3-carboxamide compounds and their use as inhibitors of PDK1” (INTERNATIONAL SOCIETY FOR DRUG DEVELOPMENT S.R.L., priority 2015, dated 2019) come the findings set out here.

The structures appear in SMILES notation. Like-named read-outs stand apart in the source and are kept apart here.

Assay [1] concerns the target PDK1 Direct kinase (Homo sapiens (Human), UniProt O15530). Briefly: Kinase-specific FRET-based Z'-LYTE assay against PDK1 Direct kinase. Type of assay: biochemical. On the procedure: The compounds of Formula (I) and (II) were tested in the biological test named Kinase-specific Z′-LYTE® assay (Invitrogen Corporation, Life Technologies).
In assay [2] the test system is GSCs isolated from U87MG cells. Briefly: GSC proliferation, MTS assay. To be noted: for IC50: Homo sapiens, U-87 MG, 168 h, seven days of treatment, MTS assay; for inhibition of GSC proliferation: starting from four days of treatment. Format: cell-based, human. The method, then:
The U87MG cell line was obtained from the National Institute for Cancer Research of Genoa (Italy) and cultured in DMEM 10% FBS and 2 mM glutamine. To isolate GSCs, approximately 2.0×10^6 cells were suspended in 1 mL of a defined serum-free Neural Stem Cell (NSC) medium (Daniele, S., et al., Modulation of A1 and A2B adenosine receptor activity: a new strategy to sensitise glioblastoma stem cells to chemotherapy. Cell death & disease, 2014. 5(11): p. e1539). After 3-4 days of culture, the neurospheres were collected, suspended in NSC medium, dissociated into single cells, and plated for the assays. For the long-term treatment of cells, NSC or complete medium containing drugs was replaced every two to three days.
The human U87MG cells or GSCs were seeded at a density of 3×10^3 cells/well. After 24 h, the cells were treated from one to seven days with fresh growth medium containing different concentrations of SA16, SA23 or IB35. Following the treatment period, cell proliferation was determined using the MTS assay according to manufacturer's instruction. The absorbance of formazan at […] was measured in a colorimetric assay with an automated plate reader (Victor Wallac 2, Perkin Elmer). The results were calculated by subtracting the mean background from the values obtained from each evaluation and were expressed as the percentage of the control (untreated cells). Sigmoid dose-response curve was generated, from which the IC50 values were derived.
The inhibition of PDK1 has been reported as potentially effective therapeutic approach to reduce self-renewal and propagation of GSCs (Signore, M., et al., Combined PDK1 and CHK1 inhibition is required to kill glioblastoma stem-like cells in vitro and in vivo. Cell death & disease, 2014. 5(5): p. e1223). On this basis, the effects of SA16, SA23 and IB35 on GSCs, isolated from U87MG cells as previously reported, were evaluated (Daniele, S., et al., Modulation of A1 and A28 adenosine receptor activity: a new strategy to sensitise glioblastoma stem cells to chemotherapy. Cell death & disease, 2014. 5(11): p. e1539). U87MG-derived GSCs were incubated with the indicated concentrations of IB35, SA23 or SA16 for four days (FIG. 8) or seven days (FIG. 9). At the end of the treatment periods, cell proliferation was measured using the MTS assay. The data were expressed as a percentage with respect to that of untreated cells (control), which was set to 100%, and are the mean values±SEM of three independent experiments, each performed in duplicate. IC50 values after seven days of treatment were calculated from sigmoid dose-response curve (FIG. 9). The significance of the differences was determined with a one-way ANOVA with Bonferroni post-test (** p<0.01, *** p<0.001 vs. control).
(In general: Tetrazolium dyes change colour on reduction, which living cells bring about.)

In assay [3] the test system is GSCs isolated from U87MG cells. Briefly: Annexin V and 7-AAD staining in GSCs (apoptosis). Format: cell-based, human. To be noted: 10 μM, 7 days. On the procedure: Dual staining with Annexin V coniugated to fluorescein-isothiocyanate (FITC) and 7-amino-actinomysin (7-AAD) was performed using the commercially available kit (Muse Annexin V and Dead Cell Kit; Merck KGaA, Darmstadt, Germany). U87MG cells or GSCs were treated with DMSO (control), SA16, SA23 or IB35 for 72 h or seven days, respectively. At the end of the treatment periods, the percentages of living, apoptotic and dead cells were acquired and analysed by Muse™ Cell Analyzer as previously described (Daniele, S., et al., Combined inhibition of AKT/mTOR and MDM2 enhances Glioblastoma Multiforme cell apoptosis and differentiation of cancer stem cells. Sci. Rep., 2015. 5.).
It was investigated if the reduction of cell proliferation elicited by the two compounds could be associated to cell apoptosis. […] At the end of treatments, the cells were collected and the degree of phosphatidylserine externalisation was evaluated using the Annexin V protocol, as above described (FIG. 10). The data were expressed as the percentage of apoptotic cells (early-apoptotic in white, late-apoptotic/necrotic in grey) relative to the total number of cells and represented in FIG. 11. […] The significance of the differences was determined with a one-way ANOVA with Bonferroni post-test (*** p<0.001 vs. control).

In assay [4] the target is FRAP1 (mTOR) (Homo sapiens (Human), UniProt P42345). Briefly: IB35 kinases profiling at 100 nM (ZLYTE). Type of assay: biochemical. The following applies: IB35 100 nM, ATP Km app. An excerpt:
(§1) The results are reported below

Assay [5] concerns the target MAPK1 (ERK2) (Homo sapiens (Human), UniProt P28482). Put plainly: IB35 kinases profiling at 100 nM (ZLYTE). The following applies: IB35 100 nM, ATP Km app. Format: biochemical.
From the text: as §1

The target of assay [6] is PRKCD (PKC delta) (Homo sapiens (Human), UniProt Q05655). Briefly: IB35 kinases profiling at 100 nM (ZLYTE). Type of assay: biochemical. The following applies: IB35 100 nM, ATP Km app.
PRKCD (PKC delta), sequence (Q05655 whole entry, species assumed): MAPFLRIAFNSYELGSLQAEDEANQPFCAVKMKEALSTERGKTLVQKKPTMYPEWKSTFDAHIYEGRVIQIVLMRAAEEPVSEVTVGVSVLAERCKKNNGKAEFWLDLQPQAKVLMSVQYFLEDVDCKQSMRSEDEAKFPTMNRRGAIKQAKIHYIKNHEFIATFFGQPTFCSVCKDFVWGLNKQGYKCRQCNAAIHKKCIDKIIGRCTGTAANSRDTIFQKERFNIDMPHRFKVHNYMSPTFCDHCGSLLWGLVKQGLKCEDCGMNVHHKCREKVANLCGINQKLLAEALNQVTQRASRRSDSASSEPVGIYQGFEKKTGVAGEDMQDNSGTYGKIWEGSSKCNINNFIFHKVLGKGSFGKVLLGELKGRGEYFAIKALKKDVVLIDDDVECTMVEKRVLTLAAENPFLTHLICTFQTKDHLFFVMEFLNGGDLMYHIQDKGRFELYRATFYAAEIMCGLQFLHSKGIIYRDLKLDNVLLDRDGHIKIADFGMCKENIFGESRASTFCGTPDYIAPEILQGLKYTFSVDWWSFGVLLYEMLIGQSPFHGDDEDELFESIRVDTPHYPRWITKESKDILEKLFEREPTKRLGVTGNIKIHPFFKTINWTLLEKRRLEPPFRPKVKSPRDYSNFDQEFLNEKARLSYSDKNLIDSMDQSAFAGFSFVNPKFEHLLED
From the text: as §1

Assay [7] deals with CAMK2A (CaMKII alpha) (Homo sapiens (Human), UniProt Q9UQM7). Put plainly: IB35 kinases profiling at 100 nM (ZLYTE). To be noted: IB35 100 nM, ATP Km app. Format: biochemical.
From the text: as §1

For assay [8], the target named is RAF1 (cRAF) Y340D Y341D (Homo sapiens (Human), UniProt P04049, Y340D/Y341D). Briefly: IB35 kinases profiling at 100 nM (ZLYTE). Format: biochemical. To be noted: IB35 100 nM, ATP 100.
RAF1 (cRAF) Y340D Y341D, sequence (P04049 whole entry Y340D/Y341D, species assumed): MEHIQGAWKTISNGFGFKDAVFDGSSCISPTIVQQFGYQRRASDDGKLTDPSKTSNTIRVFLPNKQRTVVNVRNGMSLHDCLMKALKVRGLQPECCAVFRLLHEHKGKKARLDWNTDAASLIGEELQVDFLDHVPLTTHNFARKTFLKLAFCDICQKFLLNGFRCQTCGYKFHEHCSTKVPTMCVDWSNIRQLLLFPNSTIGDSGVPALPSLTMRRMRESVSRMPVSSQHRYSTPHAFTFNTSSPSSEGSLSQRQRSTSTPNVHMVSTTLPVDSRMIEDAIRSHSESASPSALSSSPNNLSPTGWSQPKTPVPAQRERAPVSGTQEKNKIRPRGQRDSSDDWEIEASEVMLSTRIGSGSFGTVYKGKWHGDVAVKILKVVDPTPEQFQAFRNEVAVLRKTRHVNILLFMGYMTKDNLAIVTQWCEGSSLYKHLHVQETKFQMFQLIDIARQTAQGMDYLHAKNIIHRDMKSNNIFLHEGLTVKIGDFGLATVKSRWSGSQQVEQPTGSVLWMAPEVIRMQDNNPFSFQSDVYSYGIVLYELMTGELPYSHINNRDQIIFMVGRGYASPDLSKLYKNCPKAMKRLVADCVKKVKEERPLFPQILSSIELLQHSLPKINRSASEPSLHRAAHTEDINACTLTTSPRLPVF
From the text: as §1

Assay [9] deals with AMPK A1/B1/G1 (Homo sapiens (Human), UniProt Q13131). Put plainly: IB35 kinases profiling at 100 nM (ZLYTE). Format: biochemical. The following applies: IB35 100 nM, ATP Km app.
AMPK A1/B1/G1, sequence (Q13131 whole entry): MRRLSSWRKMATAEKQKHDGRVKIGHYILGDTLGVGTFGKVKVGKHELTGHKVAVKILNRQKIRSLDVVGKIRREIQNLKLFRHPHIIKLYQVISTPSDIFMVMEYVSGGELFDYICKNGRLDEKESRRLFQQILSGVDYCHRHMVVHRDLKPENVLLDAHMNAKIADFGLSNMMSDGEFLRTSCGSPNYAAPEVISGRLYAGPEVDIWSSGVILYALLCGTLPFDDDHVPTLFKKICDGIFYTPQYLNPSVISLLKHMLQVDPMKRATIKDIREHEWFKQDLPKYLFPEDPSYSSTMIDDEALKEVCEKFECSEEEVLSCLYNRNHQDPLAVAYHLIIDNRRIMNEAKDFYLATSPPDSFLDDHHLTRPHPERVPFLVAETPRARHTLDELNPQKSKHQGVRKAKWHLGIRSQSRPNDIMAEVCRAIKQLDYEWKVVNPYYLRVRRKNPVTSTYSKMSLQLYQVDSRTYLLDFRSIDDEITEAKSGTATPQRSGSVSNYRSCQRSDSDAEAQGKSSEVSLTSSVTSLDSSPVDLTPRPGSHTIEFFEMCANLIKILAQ
AMPK A1/B1/G1, sequence (Q9Y478 whole entry partner): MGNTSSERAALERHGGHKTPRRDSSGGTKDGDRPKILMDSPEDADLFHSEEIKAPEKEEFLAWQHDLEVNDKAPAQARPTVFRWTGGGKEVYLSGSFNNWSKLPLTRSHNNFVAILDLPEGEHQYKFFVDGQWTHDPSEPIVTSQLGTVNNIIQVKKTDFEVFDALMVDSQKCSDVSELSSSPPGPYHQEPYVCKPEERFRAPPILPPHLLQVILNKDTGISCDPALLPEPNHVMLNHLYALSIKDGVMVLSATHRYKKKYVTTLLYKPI
AMPK A1/B1/G1, sequence (P54619 whole entry partner): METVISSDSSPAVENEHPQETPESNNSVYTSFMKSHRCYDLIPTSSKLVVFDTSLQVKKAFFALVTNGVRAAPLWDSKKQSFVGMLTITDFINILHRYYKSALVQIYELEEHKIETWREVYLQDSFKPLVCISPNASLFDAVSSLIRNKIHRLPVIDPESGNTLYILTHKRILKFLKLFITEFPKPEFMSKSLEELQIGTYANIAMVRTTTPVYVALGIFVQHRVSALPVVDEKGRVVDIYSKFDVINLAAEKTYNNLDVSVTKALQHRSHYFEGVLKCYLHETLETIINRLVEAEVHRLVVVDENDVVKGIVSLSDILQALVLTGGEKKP
From the text: as §1

Assay [10] concerns the target PAK6 (Homo sapiens (Human), UniProt Q9NQU5). Put plainly: IB35 kinases profiling at 100 nM (ZLYTE). Format: biochemical. The following applies: IB35 100 nM, ATP Km app.
From the text: as §1

The target in assay [11] is SRC (Homo sapiens (Human), UniProt P12931). Put plainly: IB35 kinases profiling at 100 nM (ZLYTE). Format: biochemical. To be noted: IB35 100 nM, ATP Km app.
SRC, sequence (P12931 whole entry, looked up, species assumed): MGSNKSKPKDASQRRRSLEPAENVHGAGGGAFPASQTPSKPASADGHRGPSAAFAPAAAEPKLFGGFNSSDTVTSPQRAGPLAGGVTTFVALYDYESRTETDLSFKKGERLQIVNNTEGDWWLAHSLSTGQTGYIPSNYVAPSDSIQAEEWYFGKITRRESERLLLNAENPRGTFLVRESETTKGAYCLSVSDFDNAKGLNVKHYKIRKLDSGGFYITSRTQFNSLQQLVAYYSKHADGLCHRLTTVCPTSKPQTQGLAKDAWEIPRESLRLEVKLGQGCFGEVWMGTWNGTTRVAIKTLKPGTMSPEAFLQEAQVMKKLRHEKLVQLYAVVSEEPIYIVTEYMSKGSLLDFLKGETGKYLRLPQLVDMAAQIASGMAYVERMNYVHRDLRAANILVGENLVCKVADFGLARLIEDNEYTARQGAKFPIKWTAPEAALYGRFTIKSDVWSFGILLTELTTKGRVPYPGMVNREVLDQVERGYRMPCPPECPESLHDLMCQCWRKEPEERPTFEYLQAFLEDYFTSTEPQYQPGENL
From the text: as §1

[12] abbreviates: read-out: IC50 (nM) PDK1 direct.

MAPK1 (ERK2), sequence (P28482 whole entry, species assumed): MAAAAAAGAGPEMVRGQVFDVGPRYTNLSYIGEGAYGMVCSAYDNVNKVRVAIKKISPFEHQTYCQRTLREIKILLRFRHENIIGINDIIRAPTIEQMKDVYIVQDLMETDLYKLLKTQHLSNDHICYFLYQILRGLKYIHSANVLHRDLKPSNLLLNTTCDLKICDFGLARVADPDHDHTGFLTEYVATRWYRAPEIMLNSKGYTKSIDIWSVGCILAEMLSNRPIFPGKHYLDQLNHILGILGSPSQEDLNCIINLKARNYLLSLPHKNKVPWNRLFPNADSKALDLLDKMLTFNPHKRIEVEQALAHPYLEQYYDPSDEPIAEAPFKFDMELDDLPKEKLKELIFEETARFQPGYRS
PAK6, sequence (Q9NQU5 whole entry, species assumed): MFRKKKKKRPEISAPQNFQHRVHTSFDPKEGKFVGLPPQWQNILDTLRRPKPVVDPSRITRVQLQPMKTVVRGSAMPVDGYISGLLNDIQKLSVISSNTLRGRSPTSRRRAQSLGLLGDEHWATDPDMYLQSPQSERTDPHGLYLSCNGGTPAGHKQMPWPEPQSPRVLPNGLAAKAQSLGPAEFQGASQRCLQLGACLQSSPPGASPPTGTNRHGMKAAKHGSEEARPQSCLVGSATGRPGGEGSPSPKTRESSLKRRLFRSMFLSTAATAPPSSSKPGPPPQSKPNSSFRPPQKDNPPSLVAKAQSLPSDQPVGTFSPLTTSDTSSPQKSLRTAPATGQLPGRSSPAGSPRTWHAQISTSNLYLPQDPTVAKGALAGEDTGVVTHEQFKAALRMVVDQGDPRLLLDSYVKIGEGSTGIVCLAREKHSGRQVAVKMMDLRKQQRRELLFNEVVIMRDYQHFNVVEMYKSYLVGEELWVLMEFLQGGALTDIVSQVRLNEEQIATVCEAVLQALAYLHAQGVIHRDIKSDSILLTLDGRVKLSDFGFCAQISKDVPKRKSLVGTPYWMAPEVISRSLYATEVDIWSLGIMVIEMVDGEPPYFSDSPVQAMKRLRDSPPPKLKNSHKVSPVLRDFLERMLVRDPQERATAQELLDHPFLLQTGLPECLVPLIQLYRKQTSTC
PDK1 Direct kinase, sequence (O15530 whole entry): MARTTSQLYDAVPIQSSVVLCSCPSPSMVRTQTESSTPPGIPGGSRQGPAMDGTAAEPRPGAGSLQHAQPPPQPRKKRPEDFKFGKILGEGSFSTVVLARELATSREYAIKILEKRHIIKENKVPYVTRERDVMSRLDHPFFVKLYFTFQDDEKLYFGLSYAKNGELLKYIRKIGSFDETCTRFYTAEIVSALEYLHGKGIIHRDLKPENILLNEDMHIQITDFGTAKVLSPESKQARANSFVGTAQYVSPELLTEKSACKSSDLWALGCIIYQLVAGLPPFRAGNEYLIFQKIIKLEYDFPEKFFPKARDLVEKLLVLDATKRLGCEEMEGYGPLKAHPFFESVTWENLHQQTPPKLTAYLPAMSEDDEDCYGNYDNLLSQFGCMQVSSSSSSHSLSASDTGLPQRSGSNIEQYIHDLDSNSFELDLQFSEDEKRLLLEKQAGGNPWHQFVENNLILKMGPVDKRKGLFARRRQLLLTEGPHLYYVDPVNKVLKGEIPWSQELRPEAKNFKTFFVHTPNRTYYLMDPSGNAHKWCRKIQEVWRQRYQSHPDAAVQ

What is called inhibition is the drop in the measured response relative to a control, in per cent. By IC50 is commonly meant the point on the concentration scale where inhibition reaches its midpoint. With `O=C(CNC(=O)c1cccn(Cc2ccc(F)c(F)c2)c1=O)Nc1ccc2c(c1)/C(=C/c1cnc[nH]1)C(=O)N2` [IB35, (Z)—N-(2-((3-((1H-imidazol-5-yl)methylene)-2-oxoindolin-5-yl)amino)-2-oxoethyl)-1-(3,4-difluorobenzyl)-2-oxo-1,2-dihydro pyridine-3-carboxamide], the inhibition at 10 µM in [1] was more than 50%. Moreover, the IC50 in assay [1] (setting [12]) amounted to 112 nM; in assay [1] (read-out: PDK1 IC50), 112 nM; in assay [2] it was 3.36 ± 0.4 nM. Further, the “inhibition of GSC proliferation” value in assay [2] was “significant inhibition”. Also, in [3], the “percentage of total apoptotic cells” value is 38.5±3.9%. Also, the inhibition at 0.1 µM in assay [4] (read-out: % Inhibition 1) is -10%; in assay [4] (read-out: % Inhibition 2) it was -18%; in assay [4] (read-out: % Inhibition Avg), -14%; in assay [5] (read-out: % Inhibition 1), 5%; in assay [5] (read-out: % Inhibition 2), 6%; in assay [5] (read-out: % Inhibition Avg), 6%. In addition, the inhibition at 0.1 µM was -2% in assay [6] (read-out: % Inhibition 1); -12% in assay [6] (read-out: % Inhibition 2); -7% in assay [6] (read-out: % Inhibition Avg); -1% in [7] (read-out: % Inhibition 1); 2% in [7] (read-out: % Inhibition 2); 0% in assay [7] (read-out: % Inhibition Avg). Also, the inhibition at 0.1 µM in assay [8] (read-out: % Inhibition 1) was determined as 10%; in assay [8] (read-out: % Inhibition 2), 11%; in assay [8] (read-out: % Inhibition Avg), 10%; in [9] (read-out: % Inhibition 1), 8%; in assay [9] (read-out: % Inhibition 2), 7%; in [9] (read-out: % Inhibition Avg), 7%. Also, the inhibition at 0.1 µM in assay [10] (read-out: % Inhibition 1) is 1%; in [10] (read-out: % Inhibition 2), -9%; in [10] (read-out: % Inhibition Avg) it was -4%; in assay [11] (read-out: % Inhibition 1), 8%; in [11] (read-out: % Inhibition 2) it was 6%; in assay [11] (read-out: % Inhibition Avg) it was 7%.

For `O=C1Nc2ccc(NC(=O)[C@H](NC(=O)c3cccn(Cc4ccc(F)c(F)c4)c3=O)c3ccccc3)cc2/C1=C/c1ncc[nH]1` [SA23, (Z)—(R)—N-(2-((3-((1H-imidazol-2-yl)methylene)-2-oxoindolin-5-yl)amino)-2-oxo-1-phenylethyl)-1-(3,4-difluorobenzyl)-2-oxo-1,2-dihydropyridine-3-carboxamide], the inhibition at 10 µM in assay [1] is more than 50%. The IC50 in assay [1] (setting [12]) was determined as 1520 nM; in assay [1] (read-out: PDK1 IC50) it was 1520 nM; in assay [2], 0.3 ± 0.04 nM. Further, in [2], the “inhibition of GSC proliferation” value was “significant inhibition”.
